Assay results reported in patent US20220276262A1, “Methods and Products for Assessing Lysosomal System Flux” (SOUTH AUSTRALIAN HEALTH AND MEDICAL RESEARCH INSTITUTE …, priority 2019, published 2022).
Entries after “also recorded” stand apart in the source; their conditions may differ.

Experiments:
LC3B-II in PBMCs = test: Autophagic flux in PBMCs by lysosomal inhibition in whole blood, LC3B western blot; assay type: cell-based, human
Procedure: Blood was collected in lithium heparin (Greiner Bio-One, vacuette tube 9 ml lithium heparin, 455084), or EDTA (Greiner Bio-One, vacuette tube 9 ml K3EDTA, 455036) blood collection tubes (6-9 ml). Unless otherwise stated, blood samples were split into two (2×3 ml) and pipetted into 10 ml conical centrifuge tubes. One of the blood samples was treated with a final concentration of 150 μM of chloroquine (CQ, chloroquine diphosphate, Sigma Aldrich, C6628) (9 μl of 50 mM for a final volume of 3 ml of blood). Blood was mixed gently by inverting both tubes 3-4 times. Both tubes (+CQ and −CQ) were incubated at 37° C. for 1 hour with rotation (10 revolutions per minute, Thermo Scientific Tube Revolver, 88881002).
After blood was incubated for 1 hour at 37° C., blood tubes were kept on ice to stop enzyme activity and vesicular trafficking. PBMCs were then isolated using standard procedures. To each tube, 3 ml of cold DPBS (Dulbecco's Phosphate-Buffered Saline, GIBCO) was added to 3 ml of blood (1:1) and samples were mixed by gently inverting tubes 3-4 times. Four ml of Lymphoprep (Stemcell Technologies, 07811) was carefully underlayed beneath the blood/DPBS mixture using a 10 mL syringe and a canula (sterile). This was repeated for both blood tubes (containing blood incubated without and with CQ). Tubes containing blood/DPBS underlayed with lymphoprep were centrifuged for 30 min at 800 g, with brake off at 4° C.
PBMCs were carefully aspirated with a 1 mL pipette and dispensed into a 10 mL conical centrifuge tube (approximately 2 ml volume containing PBMCs). PBMCs were then diluted with cold DPBS to a final volume of 5 ml. PBMCs and DPBS were mixed gently by inverting tubes 3-4 times. PBMCs were then pelleted by centrifugation at 600 g for 10 min at 4° C. (with brake). The supernatant was discarded.
PBMCs were resuspended with 1 ml of red blood cell lysis buffer (1×, BD Biosciences, 555899) and were mixed by gently pipetting. PBMCs were left on ice for 2 minutes, after which they were pelleted by centrifugation at 600 g for 5 min at 4° C. The supernatant was discarded and PBMCs were washed by resuspension in 5 ml of cold DPBS. PBMCs were pelleted again by centrifugation at 600 g for 5 min at 4° C. The supernatant was discarded and the cells were again resuspended in 1 ml of cold DPBS and this suspension was transferred to a 1.5 ml microcentrifuge tube. This tube was centrifuged at 2,000 g for 10 min at 4° C. The supernatant was discarded and the pellet containing PBMCs was frozen on dry ice and stored at −80° C. until biochemical analyses.
PBMC pellets were resuspended in a lysis buffer containing protease and phosphatase inhibitors (10 mM Tris pH 7.0, 1 mM EDTA, 0.5 mM EGTA, 1% Triton X-100, 0.1% sodium deoxycholate, 0.1% SDS, 140 mM NaCl, 2.5 mM sodium pyrophosphate, 1 mM sodium orthovanadate, 1 mM β-glycerophosphate (pH 7.4) protease inhibitor cocktail Roche (1×). Cell suspensions were then sonicated on ice 2×20 sec. Cell lysates were centrifuged at 2,000 g for 10 min at 4° C. and the supernatant collected.
Total protein was measured using a micro BCA protein assay kit [Thermo Fisher Scientific 23235]. Western blot analysis was performed using 10 μg of total protein of each of the homogenates that were electrophoresed at 130 V for 1 hour through 4-12% Bis-Tris Plus SDS-PAGE gels (Bolt™, Invitrogen, Thermofisher Scientific). The gels were transferred to a methanol-activated PVDF membrane at 35 V for 70 min. […]

P62 in PBMCs = test: Whole blood incubation, P62 western blot in PBMCs; assay type: cell-based, human; details: chloroquine 0-200 μM in whole blood, 1 h at 37° C., four subjects
Procedure: (§1) Blood was mixed gently by inverting both tubes 3-4 times.
(§2) (with brake). The supernatant was discarded.
(§3) This tube was centrifuged at 2,000 g for 10 min at 4° C.
(§4) The gels were transferred to a methanol-activated PVDF membrane at 35 V for 70 min.
(§5) The membranes were incubated overnight at 4° C. with primary antibodies diluted in block solution on a tube roller.

LC3A in PBMCs = test: Whole blood incubation, LC3A western blot in PBMCs; assay type: cell-based, human; details: chloroquine 0-200 μM in whole blood, 1 h at 37° C., four subjects
Procedure: as §1, §2, §3, §4, §5

[1] = system: LC3B-II in PBMCs and PMNs; details: 150 μM chloroquine, one-hour, isolated PBMCs and PMNs in RPMI, N=3
Procedure: (§6) The supernatant was discarded.
as §6, §3, §4

SQSTM1/P62 in PBMCs = test: Primary culture of PBMCs with or without chloroquine, SQSTM1/P62 western blot; assay type: cell-based, human; details: 150 μM chloroquine, one-hour, isolated PBMCs in RPMI, N=3
Procedure: as §6
Images were analyzed using ImageJ software.
These populations were verified by flow cytometry (FIG. 5B).

Molecule: CCN(CC)CCCC(C)Nc1ccnc2cc(Cl)ccc12 (stereo not drawn) [chloroquine]
- LC3BII accumulation over time (LC3B-II in PBMCs; 150 μM chloroquine in whole blood, 0-120 minutes of incubation): near-linear increase in LC3BII accumulation
- LC3B-II response to chloroquine titration (ΔLC3BII, measure of autophagic flux) (LC3B-II in PBMCs; chloroquine 0-200 μM in whole blood, 1 h at 37° C., four subjects): robust directly proportional increase in response to increasing chloroquine concentration in whole blood up until 150 μM; also recorded: robust, directly proportional increase in response to increasing chloroquine concentration in whole blood up to 150 μM, after which a ceiling effect was observed
- P62 protein abundance (P62 in PBMCs): increased protein abundance with chloroquine treatment was observed in three out of four subjects
- LC3A response to chloroquine treatment (LC3A in PBMCs): not clearly responding
- LC3B-II level (LC3B-II degradation inhibited) [1]: increase in LC3B-II
- P62 level after chloroquine treatment (SQSTM1/P62 in PBMCs): did not change

Molecule: CO/C1=C\C(C)=C\[C@@H](C)[C@@H](O)[C@@H](C)C/C(C)=C/C=C/[C@H](OC)[C@@H]([C@@H](C)[C@@H](O)[C@H](C)[C@@]2(O)C[C@@H](O)[C@H](C)[C@@H](C(C)C)O2)OC1=O [Bafilomycin, bafilomycin A1]
- LC3BII cargo in PBMCs (LC3B-II in PBMCs; whole blood from four individuals, one hour at 37° C., ethanol vehicle): increased LC3BII cargo

Molecule: O=C([O-])CN(CCN(CC(=O)[O-])CC(=O)O)CC(=O)[O-].[K+].[K+].[K+] [EDTA]
- LC3B-II signal in no-chloroquine samples (basal state) (LC3B-II in PBMCs; EDTA tubes compared with lithium-heparin tubes, three subjects): lower

Molecule: lithium heparin [lithium-heparin]
- autophagic flux (ΔLC3B-II) by anti-coagulant of the collection tube (LC3B-II in PBMCs; lithium-heparin compared with EDTA tubes, 150 μM chloroquine one-hour at 37° C., three subjects): greater
